Reference: patent publication US5958944A, “Benzamide compounds and pharmaceutical use thereof” (Yoshitomi Pharmaceutical Industries, Ltd., priority 1994, dated 1999)

What was measured:
thoracic aorta = experiment: Pharmacological Experiment 2: vasodilating effects, relaxation of phenylephrine-contracted thoracic aorta rings; type: cell-based; conditions: Oryctolagus cuniculus; rabbit thoracic aorta rings contracted with phenylephrine (10^-6 M); contraction by phenylephrine as 100%; read-out: vasodilating action (concentration necessary for 50% relaxation, IC50)
Description: Pharmacological Experiment 2: vasodilating effects
Male rabbits (body weight 1.9-3.0 kg) were anesthetized with sodium pentobarbital and killed by exsanguinity. The thoracic aorta was removed and about 2 mm wide ring specimens were prepared. The specimens were hung in a 40 ml Magnus bath filled with Krebs-Henseleit solution (NaCl 117 mM; KCl 4.7 mM; CaCl2 2.5 mM; MgSO4 1.2 mM; NaHCO3 24.8 mM; KH2 PO4 1.2 mM; glucose 11.0 mM) at 37° C. at a load of 2 g. The Magnus bath was constantly aerated with a mixed gas (95% oxygen+5% carbon dioxide). The tension of the specimens was measured by isometric transducer (TB-611T, Nihon Koden). The specimens were contracted with phenylephrine (10^-6 M) and when the contraction became constant, the compound was cumulatively added to observe relaxing response. The relaxing response by the compound was calculated relative to contraction by phenylephrine as 100% as the concentration necessary for 50% relaxation (IC50, μM).

[1] = test system: spontaneously hypertensive rats (SHR); experiment: Pharmacological Experiment 1: hypotensive effects, systolic blood pressure at one hour after oral administration, tail cuff method; type: in vivo, rat; conditions: SHR P.O., 30 mg/kg
Description: Pharmacological Experiment 1: hypotensive effects
To spontaneously hypertensive rats (SHR) weighing 350-450 g (3-5 per group) was orally administered a test compound (30 mg/kg) dissolved in 0.5% hydroxypropylmethylcellulose, and systolic blood pressure at one hour after administration was determined by tail cuff method to examine hypotensive effects.

tracheal specimen = experiment: Pharmacological Experiment 3: effect on contraction caused by acetylcholine in extracted tracheal specimen; type: cell-based; conditions: Cavia porcellus; guinea pig trachea contracted with acetylcholine (10^-6 M); relative to maximum response by papaverine (10^-4 M) as 100%; read-out: bronchodilative action (IC50)
Description: Pharmacological Experiment 3: Effect on contraction caused by acetylcholine in tracheal specimen extracted from guinea pig
Male Hartley guinea pigs (body weight 260-390 g) were anesthetized by intraperitoneal administration of pentobarbital sodium (100 mg/kg) and killed by exsanguinity. The trachea was removed and ventral cartilage was cut open and ligament was cut in 3 mm width to prepare specimens. The specimens were hung in a 40 ml Magnus bath filled with Krebs-Henseleit solution (NaCl 117 mM; KCl 4.7 mM; CaCl2 2.5 mM; MgSO4 1.2 mM; NaHCO3 24.8 mM; KH2 PO4 1.2 mM; glucose 11.0 mM) at 37° C. at a load of 1 g. The Magnus bath was constantly aerated with a mixed gas (95% oxygen+5% carbon dioxide). The tension of the specimens was measured by isometric transducer (TB-611T, Nihon Koden) and recorded on a recorder (Ti-102, Tokai Irika). The specimens were contracted with acetylcholine (10^-6 M) and when the contraction became constant, the compound was cumulatively added to observe relaxing response. The relaxing response by the compound was calculated relative to maximum response by papaverine (10^-4 M) as 100% as the concentration necessary for 50% relaxation (IC50, μM).

Compound	IC50 (thoracic aorta)	hypotensive effect [1]	IC50 (tracheal specimen)
C[C@@H](N)c1ccc(C(=O)Nc2ccnc3[nH]ccc23)cc1N=[N+]=[N-] [Example 150, (R)-(-)-N-(1H-pyrrolo[2,3-b]pyridin-4-yl)-4-(1-aminoethyl)-3-azidobenzamide]	0.03 µM	–	–
C[C@@H](N)c1ccc(C(=O)Nc2ccncc2)cc1 [Example 1, (R)-N-(4-pyridyl)-4-(1-aminoethyl)benzamide]	–	-116 mmHg	–
C[C@@H](N)c1ccc(C(=O)Nc2ccnc3[nH]ccc23)cc1 [Example 9, (R)-(+)-N-(1H-pyrrolo[2,3-b]pyridin-4-yl)-4-(1-aminoethyl)benzamide]	0.05 µM	-131 mmHg	0.05 µM
